pIC50: −log10 of the molar value. Where “and” joins values, the source holds several entries; their conditions need not be identical. Equal entries are not always repeated.
System: 425362-245-T-J1 tumor spheroids, viability % test/control
Test: Anticancer human tumor 425362-245-T-J1 patient-derived melanoma cell line growth inhibition
Conditions: spheroids with HUVEC and MSC; for viability, T/C: stronger effect = lower value
Method in brief: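 Complex spheroids of malignant cells with endothelial cells and mesenchymal stem cells; agents alone or combined, from near clinical Cmax (or 10 microM if unknown) down in half-log steps, 0.25% DMSO final.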
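Further: spheroids exposed to agents for 7 days.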

CC(C)n1c(=O)n(C)c2cnc3cc(F)c(-c4ccc(OCCCN5CCCCC5)nc4)cc3c21 + COc1cc2c(cc1O)CCNC21CSC2c3c(OC(C)=O)c(C)c4c(c3C(COC1=O)N1C(O)C3Cc5cc(C)c(OC)c(O)c5C(C21)N3C)OCO4
pIC50 (curve of first compound, second compound 30 pM): > 7.50 | pIC50 (curve of first compound, second compound 94.9 pM): > 7.50 | pIC50 (curve of first compound, second compound 0.0003 µM): > 7.50 | pIC50 (curve of first compound, second compound 0.000949 µM): > 7.50 | pIC50 (curve of first compound, second compound 0.003 µM): > 7.50 | viability, T/C (second compound 30 pM, first compound 0.0316 µM): 14.8% | viability, T/C (second compound 30 pM, first compound 0.1 µM): 30.2% | viability, T/C (second compound 30 pM, first compound 0.316 µM): 13.3% | viability, T/C (second compound 30 pM, first compound 1 µM): 14.8% | viability, T/C (second compound 30 pM, first compound 3.16 µM): 11.2% | viability, T/C (second compound 30 pM, first compound 10 µM): 5.34% | viability, T/C (second compound 94.9 pM, first compound 0.0316 µM): 12% | viability, T/C (second compound 94.9 pM, first compound 0.1 µM): 9.68% | viability, T/C (second compound 94.9 pM, first compound 0.316 µM): 5.43% | viability, T/C (second compound 94.9 pM, first compound 1 µM): 6.03% | viability, T/C (second compound 94.9 pM, first compound 3.16 µM): 6.79% | viability, T/C (second compound 94.9 pM, first compound 10 µM): 4.33% | viability, T/C (second compound 0.0003 µM, first compound 0.0316 µM): 3.13% | viability, T/C (second compound 0.0003 µM, first compound 0.1 µM): 2.75% | viability, T/C (second compound 0.0003 µM, first compound 0.316 µM): 1.61% | viability, T/C (second compound 0.0003 µM, first compound 1 µM): 1.81% | viability, T/C (second compound 0.0003 µM, first compound 3.16 µM): 1.68% | viability, T/C (second compound 0.0003 µM, first compound 10 µM): 1.23% | viability, T/C (second compound 0.000949 µM, first compound 0.0316 µM): 0.2% | viability, T/C (second compound 0.000949 µM, first compound 0.1 µM): 0.2% | viability, T/C (second compound 0.000949 µM, first compound 0.316 µM): 0.19% | viability, T/C (second compound 0.000949 µM, first compound 1 µM): 0.63% | viability, T/C (second compound 0.000949 µM, first compound 3.16 µM): 0.35% | viability, T/C (second compound 0.000949 µM, first compound 10 µM): 0.15% | viability, T/C (second compound 0.003 µM, first compound 0.0316 µM): 0.18% | viability, T/C (second compound 0.003 µM, first compound 0.1 µM): 0.19% | viability, T/C (second compound 0.003 µM, first compound 0.316 µM): 0.17% | viability, T/C (second compound 0.003 µM, first compound 1 µM): 0.12% | viability, T/C (second compound 0.003 µM, first compound 3.16 µM): 0.12% | viability, T/C (second compound 0.003 µM, first compound 10 µM): 0.23%

Cc1sc2c(c1C)C(c1ccc(Cl)cc1)=NC(CC(=O)Nc1ccc(O)cc1)c1nnc(C)n1-2 (configuration not stated) + Cn1nnc2c(C(N)=O)ncn2c1=O
pIC50 (curve of first compound, second compound 1 µM): 7.08 | pIC50 (curve of first compound, second compound 3.16 µM): 7.06 | pIC50 (curve of first compound, second compound 10 µM): 6.97 | pIC50 (curve of first compound, second compound 31.6 µM): 6.97 | pIC50 (curve of first compound, second compound 100 µM): 7.07 | viability, T/C (second compound 1 µM, first compound 0.00949 µM): 85.8% | viability, T/C (second compound 1 µM, first compound 0.03 µM): 86.8% | viability, T/C (second compound 1 µM, first compound 0.0949 µM): 44.5% | viability, T/C (second compound 1 µM, first compound 0.3 µM): 11.4% | viability, T/C (second compound 1 µM, first compound 0.949 µM): 4.19% | viability, T/C (second compound 1 µM, first compound 3 µM): 4.22% | viability, T/C (second compound 3.16 µM, first compound 0.00949 µM): 110% | viability, T/C (second compound 3.16 µM, first compound 0.03 µM): 86.2% | viability, T/C (second compound 3.16 µM, first compound 0.0949 µM): 47.6% | viability, T/C (second compound 3.16 µM, first compound 0.3 µM): 15.7% | viability, T/C (second compound 3.16 µM, first compound 0.949 µM): 3.45% | viability, T/C (second compound 3.16 µM, first compound 3 µM): 2.88% | viability, T/C (second compound 10 µM, first compound 0.00949 µM): 106% | viability, T/C (second compound 10 µM, first compound 0.03 µM): 90% | viability, T/C (second compound 10 µM, first compound 0.0949 µM): 57.5% | viability, T/C (second compound 10 µM, first compound 0.3 µM): 8.87% | viability, T/C (second compound 10 µM, first compound 0.949 µM): 3.57% | viability, T/C (second compound 10 µM, first compound 3 µM): 2.37% | viability, T/C (second compound 31.6 µM, first compound 0.00949 µM): 103% | viability, T/C (second compound 31.6 µM, first compound 0.03 µM): 92% | viability, T/C (second compound 31.6 µM, first compound 0.0949 µM): 54.1% | viability, T/C (second compound 31.6 µM, first compound 0.3 µM): 16.9% | viability, T/C (second compound 31.6 µM, first compound 0.949 µM): 4% | viability, T/C (second compound 31.6 µM, first compound 3 µM): 2.29% | viability, T/C (second compound 100 µM, first compound 0.00949 µM): 84.8% | viability, T/C (second compound 100 µM, first compound 0.03 µM): 90.5% | viability, T/C (second compound 100 µM, first compound 0.0949 µM): 45.6% | viability, T/C (second compound 100 µM, first compound 0.3 µM): 10.6% | viability, T/C (second compound 100 µM, first compound 0.949 µM): 3.44% | viability, T/C (second compound 100 µM, first compound 3 µM): 1.57%

Cc1sc2c(c1C)C(c1ccc(Cl)cc1)=NC(CC(=O)Nc1ccc(O)cc1)c1nnc(C)n1-2 (configuration not stated)
viability, T/C (compound 0.00949 µM): 97.8% and 84.1% and 108% | viability, T/C (compound 0.03 µM): 91.2% and 76% and 93% | viability, T/C (compound 0.0949 µM): 49.5% and 47.9% and 42.8% | viability, T/C (compound 0.3 µM): 12.8% and 12% and 8.15% | viability, T/C (compound 0.949 µM): 5.36% and 3.14% and 2.44% | viability, T/C (compound 3 µM): 2.57% and 1.92% and 2.11% | pIC50 (curve of compound): 7.02 and 7.07 and 7.10
